Assay results from ChEMBL document CHEMBL5608113, “Targeting of CAF-induced therapy resistance in CRC organoid-stroma co-cultures” (2024).

Each compound was assayed on Colon cancer organoid (assay: Targeting of F14 CAF-induced therapy resistance in O23 CRC organoid-stroma co-culture. Cell viability is reported without Gefitinib.). Details: Homo sapiens, Concentration 1 uM; read-out: Cell Viability.
Type: functional, Homo sapiens

Structure (SMILES)	viability at 1 µM
O[C@]1(C(F)(F)F)CCCC[C@H]1Nc1ccc(F)cc1 [BAY-390]	153%
O=C(NCCCC1CCCCC1)c1ccc(CNC(=O)c2cnn(-c3ccccc3)c2C(F)(F)F)cc1 [SR-321]	138%
COCCOc1nc(-c2ccc(Cl)nc2)nc2c1CN(C(=O)c1ncn3ccccc13)CC2 [THPP-1]	141%
NC1(c2ccc(-c3nc4c(O)ccnn4c3-c3ccccc3)cc2)CCC1	122%

Same assay, conditions: Homo sapiens, Concentration 10 uM; read-out: Cell Viability

Structure (SMILES)	viability at 10 µM
CC(=O)Nc1cccc(-n2c(=O)n(C3CC3)c(=O)c3c(Nc4ccc(I)cc4F)n(C)c(=O)c(C)c32)c1 [TRAMETINIB]	1.69%
CN(C)[C@@H]1CCN(c2cc(-c3ccccc3)nc3ccnn23)C1 [(R)-ZINC-3573]	130%
c1ccc([C@@H]2C[C@H]2NC2CCNCC2)cc1	79.5%
Cc1cc(CN)cc(C)c1-c1ncn(C)c1-c1cncn1C	112%
COc1cc2c(cc1-c1c(C)noc1C)ncc1[nH]c(=O)n([C@H](C)c3ccccn3)c12	143%
O=C(NC[C@@H]1[C@H]2CN(C(=O)OCc3cc(C(F)(F)F)cc(C(F)(F)F)c3)C[C@@H]12)c1ccc2[nH]nnc2c1 [BI 2545]	142%
Cn1nc(C(F)(F)F)cc1-c1cnc(N2CCc3cc(S(=O)(=O)Nc4c(F)cc(Cl)cc4F)cc(N4CCCC4=O)c32)nc1 [TP-020]	133%
C[C@@H]1CC(=O)Nc2cccc(-c3ccc4c(c3)c(-c3cnn(C)c3)nn4C)c2N1	115%
CC(C)NC(=O)N1CC[C@H](NC2=Nc3cc(F)ccc3N(CC(F)F)c3ccc(Cl)cc32)C1	79%
CC1=C(C#N)C(c2ccc3c(c2)c(NC(=O)c2ccccc2C)nn3C)C(C#N)=C(C)N1 [BAY-974]	103%

These compounds were tested on Colon cancer organoid (assay: Targeting of F14 CAF-induced therapy resistance in O23 CRC organoid-stroma co-culture. Cell viability is reported with Gefitinib.). Details: Homo sapiens, Concentration 1 uM; read-out: Cell Viability.
Type: functional, Homo sapiens

Structure (SMILES)	viability at 1 µM
O[C@]1(C(F)(F)F)CCCC[C@H]1Nc1ccc(F)cc1 [BAY-390]	64.2%
O=C(NCCCC1CCCCC1)c1ccc(CNC(=O)c2cnn(-c3ccccc3)c2C(F)(F)F)cc1 [SR-321]	48.4%
COCCOc1nc(-c2ccc(Cl)nc2)nc2c1CN(C(=O)c1ncn3ccccc13)CC2 [THPP-1]	47.7%
NC1(c2ccc(-c3nc4c(O)ccnn4c3-c3ccccc3)cc2)CCC1	69.1%

Same assay, conditions: Homo sapiens, Concentration 10 uM; read-out: Cell Viability

Structure (SMILES)	viability at 10 µM
CC(=O)Nc1cccc(-n2c(=O)n(C3CC3)c(=O)c3c(Nc4ccc(I)cc4F)n(C)c(=O)c(C)c32)c1 [TRAMETINIB]	1.61%
CN(C)[C@@H]1CCN(c2cc(-c3ccccc3)nc3ccnn23)C1 [(R)-ZINC-3573]	61.7%
c1ccc([C@@H]2C[C@H]2NC2CCNCC2)cc1	68%
Cc1cc(CN)cc(C)c1-c1ncn(C)c1-c1cncn1C	73.9%
COc1cc2c(cc1-c1c(C)noc1C)ncc1[nH]c(=O)n([C@H](C)c3ccccn3)c12	78.1%
O=C(NC[C@@H]1[C@H]2CN(C(=O)OCc3cc(C(F)(F)F)cc(C(F)(F)F)c3)C[C@@H]12)c1ccc2[nH]nnc2c1 [BI 2545]	83.8%
Cn1nc(C(F)(F)F)cc1-c1cnc(N2CCc3cc(S(=O)(=O)Nc4c(F)cc(Cl)cc4F)cc(N4CCCC4=O)c32)nc1 [TP-020]	65.7%
C[C@@H]1CC(=O)Nc2cccc(-c3ccc4c(c3)c(-c3cnn(C)c3)nn4C)c2N1	69%
CC(C)NC(=O)N1CC[C@H](NC2=Nc3cc(F)ccc3N(CC(F)F)c3ccc(Cl)cc32)C1	61.4%
CC1=C(C#N)C(c2ccc3c(c2)c(NC(=O)c2ccccc2C)nn3C)C(C#N)=C(C)N1 [BAY-974]	40.1%

What follows are compounds tested on Colon cancer organoid (assay: Targeting of F14 CAF-induced therapy resistance in O14 CRC organoid-stroma co-culture. Cell viability is reported without Gefitinib.). Details: Homo sapiens, Concentration 1 uM; read-out: Cell Viability.
Type: functional, Homo sapiens

Structure (SMILES)	viability at 1 µM
O[C@]1(C(F)(F)F)CCCC[C@H]1Nc1ccc(F)cc1 [BAY-390]	92.1%
O=C(NCCCC1CCCCC1)c1ccc(CNC(=O)c2cnn(-c3ccccc3)c2C(F)(F)F)cc1 [SR-321]	92%
COCCOc1nc(-c2ccc(Cl)nc2)nc2c1CN(C(=O)c1ncn3ccccc13)CC2 [THPP-1]	100%
NC1(c2ccc(-c3nc4c(O)ccnn4c3-c3ccccc3)cc2)CCC1	98.8%

Same assay, conditions: Homo sapiens, Concentration 10 uM; read-out: Cell Viability

Structure (SMILES)	viability at 10 µM
CC(=O)Nc1cccc(-n2c(=O)n(C3CC3)c(=O)c3c(Nc4ccc(I)cc4F)n(C)c(=O)c(C)c32)c1 [TRAMETINIB]	1.6%
CN(C)[C@@H]1CCN(c2cc(-c3ccccc3)nc3ccnn23)C1 [(R)-ZINC-3573]	68.2%
c1ccc([C@@H]2C[C@H]2NC2CCNCC2)cc1	114%
Cc1cc(CN)cc(C)c1-c1ncn(C)c1-c1cncn1C	112%
COc1cc2c(cc1-c1c(C)noc1C)ncc1[nH]c(=O)n([C@H](C)c3ccccn3)c12	30.2%
O=C(NC[C@@H]1[C@H]2CN(C(=O)OCc3cc(C(F)(F)F)cc(C(F)(F)F)c3)C[C@@H]12)c1ccc2[nH]nnc2c1 [BI 2545]	105%
Cn1nc(C(F)(F)F)cc1-c1cnc(N2CCc3cc(S(=O)(=O)Nc4c(F)cc(Cl)cc4F)cc(N4CCCC4=O)c32)nc1 [TP-020]	95%
C[C@@H]1CC(=O)Nc2cccc(-c3ccc4c(c3)c(-c3cnn(C)c3)nn4C)c2N1	43.6%
CC(C)NC(=O)N1CC[C@H](NC2=Nc3cc(F)ccc3N(CC(F)F)c3ccc(Cl)cc32)C1	89.7%
CC1=C(C#N)C(c2ccc3c(c2)c(NC(=O)c2ccccc2C)nn3C)C(C#N)=C(C)N1 [BAY-974]	109%

The compounds below were run on Colon cancer organoid (assay: Targeting of F14 CAF-induced therapy resistance in O23 CRC organoid-stroma co-culture. Cell viability is reported with SN-38.). Details: Homo sapiens, Concentration 1 uM; read-out: Cell Viability.
Type: functional, Homo sapiens

Structure (SMILES)	viability at 1 µM
O[C@]1(C(F)(F)F)CCCC[C@H]1Nc1ccc(F)cc1 [BAY-390]	51%
O=C(NCCCC1CCCCC1)c1ccc(CNC(=O)c2cnn(-c3ccccc3)c2C(F)(F)F)cc1 [SR-321]	78%
COCCOc1nc(-c2ccc(Cl)nc2)nc2c1CN(C(=O)c1ncn3ccccc13)CC2 [THPP-1]	58.4%
NC1(c2ccc(-c3nc4c(O)ccnn4c3-c3ccccc3)cc2)CCC1	65%

Same assay, conditions: Homo sapiens, Concentration 10 uM; read-out: Cell Viability

Structure (SMILES)	viability at 10 µM
CC(=O)Nc1cccc(-n2c(=O)n(C3CC3)c(=O)c3c(Nc4ccc(I)cc4F)n(C)c(=O)c(C)c32)c1 [TRAMETINIB]	1.6%
CN(C)[C@@H]1CCN(c2cc(-c3ccccc3)nc3ccnn23)C1 [(R)-ZINC-3573]	70.6%
c1ccc([C@@H]2C[C@H]2NC2CCNCC2)cc1	68.3%
Cc1cc(CN)cc(C)c1-c1ncn(C)c1-c1cncn1C	87.1%
COc1cc2c(cc1-c1c(C)noc1C)ncc1[nH]c(=O)n([C@H](C)c3ccccn3)c12	91.5%
O=C(NC[C@@H]1[C@H]2CN(C(=O)OCc3cc(C(F)(F)F)cc(C(F)(F)F)c3)C[C@@H]12)c1ccc2[nH]nnc2c1 [BI 2545]	105%
Cn1nc(C(F)(F)F)cc1-c1cnc(N2CCc3cc(S(=O)(=O)Nc4c(F)cc(Cl)cc4F)cc(N4CCCC4=O)c32)nc1 [TP-020]	92.4%
C[C@@H]1CC(=O)Nc2cccc(-c3ccc4c(c3)c(-c3cnn(C)c3)nn4C)c2N1	70.4%
CC(C)NC(=O)N1CC[C@H](NC2=Nc3cc(F)ccc3N(CC(F)F)c3ccc(Cl)cc32)C1	42.9%
CC1=C(C#N)C(c2ccc3c(c2)c(NC(=O)c2ccccc2C)nn3C)C(C#N)=C(C)N1 [BAY-974]	57.9%

What follows are compounds tested on Colon cancer organoid (assay: Targeting of F14 CAF-induced therapy resistance in O14 CRC organoid-stroma co-culture. Cell viability is reported with Gefitinib.). Details: Homo sapiens, Concentration 1 uM; read-out: Cell Viability.
Type: functional, Homo sapiens

Structure (SMILES)	viability at 1 µM
O[C@]1(C(F)(F)F)CCCC[C@H]1Nc1ccc(F)cc1 [BAY-390]	34%
O=C(NCCCC1CCCCC1)c1ccc(CNC(=O)c2cnn(-c3ccccc3)c2C(F)(F)F)cc1 [SR-321]	23.5%
COCCOc1nc(-c2ccc(Cl)nc2)nc2c1CN(C(=O)c1ncn3ccccc13)CC2 [THPP-1]	37.5%
NC1(c2ccc(-c3nc4c(O)ccnn4c3-c3ccccc3)cc2)CCC1	49.5%

Same assay, conditions: Homo sapiens, Concentration 10 uM; read-out: Cell Viability

Structure (SMILES)	viability at 10 µM
CC(=O)Nc1cccc(-n2c(=O)n(C3CC3)c(=O)c3c(Nc4ccc(I)cc4F)n(C)c(=O)c(C)c32)c1 [TRAMETINIB]	0.402%
CN(C)[C@@H]1CCN(c2cc(-c3ccccc3)nc3ccnn23)C1 [(R)-ZINC-3573]	30.9%
c1ccc([C@@H]2C[C@H]2NC2CCNCC2)cc1	58.2%
Cc1cc(CN)cc(C)c1-c1ncn(C)c1-c1cncn1C	80.2%
COc1cc2c(cc1-c1c(C)noc1C)ncc1[nH]c(=O)n([C@H](C)c3ccccn3)c12	9.93%
O=C(NC[C@@H]1[C@H]2CN(C(=O)OCc3cc(C(F)(F)F)cc(C(F)(F)F)c3)C[C@@H]12)c1ccc2[nH]nnc2c1 [BI 2545]	43%
Cn1nc(C(F)(F)F)cc1-c1cnc(N2CCc3cc(S(=O)(=O)Nc4c(F)cc(Cl)cc4F)cc(N4CCCC4=O)c32)nc1 [TP-020]	61.7%
C[C@@H]1CC(=O)Nc2cccc(-c3ccc4c(c3)c(-c3cnn(C)c3)nn4C)c2N1	21.1%
CC(C)NC(=O)N1CC[C@H](NC2=Nc3cc(F)ccc3N(CC(F)F)c3ccc(Cl)cc32)C1	36%
CC1=C(C#N)C(c2ccc3c(c2)c(NC(=O)c2ccccc2C)nn3C)C(C#N)=C(C)N1 [BAY-974]	48.3%
